The results in this text go back to patent publication US20080139564A1, “SUBSTITUTED PHENYL PROPYL AMINES AS HISTAMINE H3 RECEPTOR AND SEROTONIN TRANSPORTER MODULATORS” (priority 2006, published 2008).

The structures appear in SMILES notation.

The target in one assay is T1, human SERT (Homo sapiens, UniProt P31645).
T1 construct: expressed in transfected cells; host or cells: HEK293
In words: Human SERT binding (3H-citalopram displacement, HEK293 membranes). Conditions: 3H-citalopram 3.1 nM, rt for 1 h. As to the method: Homogenized HEK293 (Human Embryonic Kidney) membranes expressing the human SERT were incubated with ^3H-citalopram (SERT) at rt for 1 h in 50 mM Tris, 120 mM NaCl, 5 mM KCl (pH 7.4). Nonspecific binding was determined in the presence of 10 μM fluoxetine for the SERT. The membranes were washed and the radioactivity was counted as above. Calculations for Ki at the SERT were based on a Kd value for ^3H-citalopram and a ligand concentration of 3.1 nM.

Another assay addresses T2, human H3 receptor (Homo sapiens, UniProt Q9Y5N1).
T2 construct: expressed in transfected cells
In words: H3 receptor binding (N-[3H]-α-methylhistamine displacement, SK-N-MC cell membranes). Particulars: 0.8 nM N-[3H]-α-methylhistamine, 60 min at 25° C. As to the method: Binding of compounds to the cloned human H3 receptor, stably expressed in SK-N-MC cells, was performed (Lovenberg, T. W. et al. J. Pharmacol. Exp. Ther. 2000, 293, 771-778). Briefly, cell pellets from SK-N-MC cells expressing the human H3 receptor were homogenized in 50 mM Tris-HCl/5 mM EDTA and re-centrifuged at 30,000 g for 30 min. Pellets were re-homogenized in 50 mM Tris/5 mM EDTA (pH 7.4). Membranes were incubated with 0.8 nM N—[^3H]-α-methylhistamine plus/minus test compounds for 60 min at 25° C. and harvested by rapid filtration over GF/C glass fiber filters (pretreated with 0.3% polyethylenimine) followed by four washes with ice-cold buffer. Nonspecific binding was defined in the presence of 10 μM histamine.

The target of another assay is T3, Rat SERT (Rattus norvegicus, UniProt P31652).
T3 construct: A rat brain without cerebellum (Zivic Laboratories, Inc.—Pittsburgh, Pa.) was homogenized; tissue Zivic Laboratories, Inc; host or cells: rat brain without cerebellum
In words: Rat brain SERT binding ([3H]-Citalopram displacement, rat brain membranes). Particulars: 0.6 nM [3H]-Citalopram, 60 min at 25° C. Here is the method:
A rat brain without cerebellum (Zivic Laboratories, Inc.—Pittsburgh, Pa.) was homogenized in a 52.6 mM Tris pH 8/126.4 mM NaCl/5.26 mM KCl mixture and centrifuged at 1,000 rpm for 5 min. The supernatant was removed and re-centrifuged at 15,000 rpm for 30 min. Pellets were re-homogenized in a 52.6 mM Tris pH8/126.4 mM NaCl/5.26 mM KCl mixture. Membranes were incubated with 0.6 nM [^3H]-Citalopram plus/minus test compounds for 60 min at 25° C. and harvested by rapid filtration over GF/C glass fiber filters (pretreated with 0.3% polyethylenimine) followed by four washes with ice-cold buffer. Nonspecific binding was defined in the presence of 100 μM fluoxetine.

T2 sequence (Q9Y5N1 whole entry): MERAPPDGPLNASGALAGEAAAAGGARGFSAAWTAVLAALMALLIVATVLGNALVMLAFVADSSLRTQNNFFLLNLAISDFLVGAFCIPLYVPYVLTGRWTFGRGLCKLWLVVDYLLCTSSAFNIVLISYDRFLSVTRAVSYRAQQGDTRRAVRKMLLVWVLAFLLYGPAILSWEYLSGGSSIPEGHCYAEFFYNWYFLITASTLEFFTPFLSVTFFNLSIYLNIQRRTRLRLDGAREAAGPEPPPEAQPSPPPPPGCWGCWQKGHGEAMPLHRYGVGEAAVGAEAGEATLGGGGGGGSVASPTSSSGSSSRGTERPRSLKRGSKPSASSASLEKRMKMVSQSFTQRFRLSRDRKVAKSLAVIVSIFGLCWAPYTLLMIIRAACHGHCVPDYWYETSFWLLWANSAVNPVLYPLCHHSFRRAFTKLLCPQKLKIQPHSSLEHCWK
T3 sequence (P31652 whole entry): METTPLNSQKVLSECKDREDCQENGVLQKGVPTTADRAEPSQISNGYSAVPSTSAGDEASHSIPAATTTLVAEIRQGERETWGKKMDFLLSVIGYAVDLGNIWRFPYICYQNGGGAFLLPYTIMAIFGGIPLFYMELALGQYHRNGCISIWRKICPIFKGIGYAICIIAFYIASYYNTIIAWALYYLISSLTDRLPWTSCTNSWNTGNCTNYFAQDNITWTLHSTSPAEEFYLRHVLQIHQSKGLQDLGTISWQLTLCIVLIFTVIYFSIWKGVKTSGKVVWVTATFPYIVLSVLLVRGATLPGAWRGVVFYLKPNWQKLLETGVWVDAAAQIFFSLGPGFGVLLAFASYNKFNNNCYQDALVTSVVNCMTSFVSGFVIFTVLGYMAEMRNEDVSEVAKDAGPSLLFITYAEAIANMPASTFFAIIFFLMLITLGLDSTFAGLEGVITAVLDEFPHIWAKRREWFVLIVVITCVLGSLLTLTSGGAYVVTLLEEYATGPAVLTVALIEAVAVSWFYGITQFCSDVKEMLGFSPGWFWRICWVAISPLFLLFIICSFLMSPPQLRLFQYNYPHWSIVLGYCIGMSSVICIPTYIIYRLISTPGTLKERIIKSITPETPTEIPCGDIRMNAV
T1 sequence (P31645 whole entry): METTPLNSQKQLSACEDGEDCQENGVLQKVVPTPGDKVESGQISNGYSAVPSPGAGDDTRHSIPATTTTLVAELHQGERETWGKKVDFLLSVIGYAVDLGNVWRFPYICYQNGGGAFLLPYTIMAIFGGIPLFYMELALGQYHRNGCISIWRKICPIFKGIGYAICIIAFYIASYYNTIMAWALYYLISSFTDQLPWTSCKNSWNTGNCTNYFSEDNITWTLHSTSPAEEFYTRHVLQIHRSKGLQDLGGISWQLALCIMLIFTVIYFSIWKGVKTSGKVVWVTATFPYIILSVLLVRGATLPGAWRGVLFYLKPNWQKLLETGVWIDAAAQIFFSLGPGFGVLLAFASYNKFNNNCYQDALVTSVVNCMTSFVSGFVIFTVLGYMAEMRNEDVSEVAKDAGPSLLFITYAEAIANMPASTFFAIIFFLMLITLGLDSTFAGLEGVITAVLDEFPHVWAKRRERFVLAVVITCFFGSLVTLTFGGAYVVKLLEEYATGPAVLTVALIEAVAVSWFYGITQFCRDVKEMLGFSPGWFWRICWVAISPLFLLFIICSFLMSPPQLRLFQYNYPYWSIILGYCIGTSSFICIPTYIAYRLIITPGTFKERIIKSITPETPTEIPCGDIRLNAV

On to `CN(C)CCC(Oc1ccc(F)cc1)c1ccc(OCCCN2CCCCC2)cc1` (centres unmarked) [Example 10, {3-(4-Fluoro-phenoxy)-3-[4-(3-piperidin-1-yl-propoxy)-phenyl]-propyl}-dimethyl-amine], for which the Ki (usually the dissociation constant of the complex between target and ligand, obtained from inhibition or displacement) on human SERT was found to be 46 nM; on human H3 receptor it was 1 nM; on Rat SERT, 1.3 nM. With `COc1ccc(OC(CCN(C)C)c2ccc(C#CCCN3CCSCC3)cc2)cc1` (centres unmarked) [Example 26, {3-(4-Methoxy-phenoxy)-3-[4-(4-thiomorpholin-4-yl-but-1-ynyl)phenyl]-propyl}-dimethyl-amine], the inhibitory constant (Ki) on human H3 receptor came to 11 nM; on Rat SERT it was 43 nM. With `CN(C)CCC(Oc1ccc(C(F)(F)F)cc1)c1ccc(C#CCCN2CCSCC2)cc1` (centres unmarked) [Example 28, Dimethyl-[3-[4-(4-thiomorpholin-4-yl-but-1-ynyl)-phenyl]-3-(4-trifluoromethyl-phenoxy)-propyl]-amine], the values for the Ki on human H3 receptor and on Rat SERT were 122 nM and 170 nM, respectively.

Take `CC(C)N1CCN(CCC#Cc2ccc(C(CCN(C)C)Oc3ccc(C(F)(F)F)cc3)cc2)CC1` (centres unmarked) [Example 29, [3-{4-[4-(4-Isopropyl-piperazin-1-yl)-but-1-ynyl]-phenyl}-3-(4-trifluoromethyl-phenoxy)-propyl]-dimethyl-amine]: the values for the Ki at human H3 receptor and on Rat SERT were 255 nM and 39 nM, respectively.

At Rat SERT, `CN(C)CCC(Oc1ccc(Cl)c(Cl)c1)c1ccc(OCCCN2CCCCC2)cc1` (single isomer, unassigned; (+)) [Example 75, (+)-{3-(3,4-Dichloro-phenoxy)-3-[4-(3-piperidin-1-yl-propoxy)phenyl]-propyl}-dimethyl-amine] returned a Ki of 9.7 nM. Take `CN(C)CCC(Oc1ccc(C#CCCN2CCCCC2)cc1)c1ccc(F)cc1` (centres unmarked) [Example 77, {3-(4-Fluoro-phenyl)-3-[4-(4-piperidin-1-yl-but-1-ynyl)-phenoxy]-propyl}-dimethyl-amine]: the Ki on human H3 receptor came out at 364 nM; on Rat SERT, 165 nM.

For `CN(C)CCC(Oc1ccc(C#CCCN2CCOCC2)cc1)c1ccccc1` (centres unmarked) [Example 61, Dimethyl-{3-[4-(4-morpholin-4-yl-but-1-ynyl)-phenoxy]-3-phenyl-propyl}-amine], the inhibition constant (Ki) on human H3 receptor is 102 nM; at Rat SERT, 108 nM. For `CN(C)CCC(Oc1ccc(C#CCCN2CCSCC2)cc1)c1ccc(Cl)cc1` (centres unmarked) [Example 58, {3-(4-Chloro-phenyl)-3-[4-(4-thiomorpholin-4-yl-but-1-ynyl)phenoxy]-propyl}-dimethyl-amine], the Ki is 29 nM on human H3 receptor and 150 nM at Rat SERT.

`CN(C)CCC(Oc1ccc(Cl)c(Cl)c1)c1ccc(C#CCCN2CCCCC2)cc1` (centres unmarked) [Example 30, {3-(3,4-Dichloro-phenoxy)-3-[4-(4-piperidin-1-yl-but-1-ynyl)phenyl]-propyl}-dimethyl-amine]: the Ki was found to be 24 nM on human H3 receptor and 21 nM at Rat SERT. Regarding `CCCCN1CCN(Cc2ccc(C(CCN(C)C)Oc3ccc(C(F)(F)F)cc3)cc2)CC1` (centres unmarked) [Example 49, [3-[4-(4-Butyl-piperazin-1-ylmethyl)-phenyl]-3-(4-trifluoromethylphenoxy)-propyl]-dimethyl-amine], the Ki is 73 nM at human H3 receptor and 48 nM on Rat SERT. Consider `CC(C)N1CCN(C(=O)c2ccc(OC(CCN(C)C)c3ccc(C(F)(F)F)cc3)cc2)CC1` (centres unmarked) [Example 46, {4-[3-Dimethylamino-1-(4-trifluoromethyl-phenyl)-propoxy]-phenyl}-(4-isopropyl-piperazin-1-yl)-methanone], for which the figures for the inhibitory constant (Ki) on human H3 receptor and at Rat SERT were 1 nM and 58 nM, respectively. As to `CN(C)CCC(Oc1ccc(C#CCCN2CCSCC2)cc1)c1ccc(C(F)(F)F)cc1` (centres unmarked) [Example 76, Dimethyl-[3-[4-(4-thiomorpholin-4-yl-but-1-ynyl)-phenoxy]-3-(4-trifluoromethyl-phenyl)-propyl]-amine], the inhibitory constant (Ki) is 75 nM at human H3 receptor and 537 nM on Rat SERT. Turning to `CC(C)N1CCN(CCC#Cc2ccc(OC(CCN(C)C)c3ccc(C(F)(F)F)cc3)cc2)CC1` (centres unmarked) [Example 62, [3-{4-[4-(4-Isopropyl-piperazin-1-yl)-but-1-ynyl]-phenoxy}-3-(4-trifluoromethyl-phenyl)-propyl]-dimethyl-amine], the figures for the inhibition constant (Ki) on human H3 receptor and on Rat SERT were 143 nM and 166 nM, respectively. As to `CN(C)CCC(Oc1ccc(Cl)c(Cl)c1)c1ccc(OCCCN2CCCCC2)cc1` (centres unmarked) [Example 9, {3-(3,4-Dichloro-phenoxy)-3-[4-(3-piperidin-1-yl-propoxy)-phenyl]-propyl}-dimethyl-amine], affinity on Rat SERT was put at a Ki of 6 nM. This counts as single-digit nanomolar. Turning to `CN(C)CCC(Oc1ccc(C#CCCN2CCOCC2)cc1)c1ccc(C(F)(F)F)cc1` (centres unmarked) [Example 64, Dimethyl-[3-[4-(4-morpholin-4-yl-but-1-ynyl)-phenoxy]-3-(4-trifluoromethyl-phenyl)-propyl]-amine], the results for the Ki at human H3 receptor and on Rat SERT were 4000 nM and 342 nM, respectively.

Consider `CCCCN1CCN(C(=O)c2ccc(C(CCN(C)C)Oc3ccc(C(F)(F)F)cc3)cc2)CC1` (centres unmarked) [Example 48, (4-Butyl-piperazin-1-yl)-{4-[3-dimethylamino-1-(4-trifluoromethylphenoxy)-propyl]-phenyl}-methanone], for which the Ki at human H3 receptor worked out at 17 nM; on Rat SERT, 86 nM. On the same counts, the results for `CN(C)CCC(Oc1ccc(C(F)(F)F)cc1)c1ccc(C#CCCN2CCOCC2)cc1` (centres unmarked) [Example 27, Dimethyl-[3-[4-(4-morpholin-4-yl-but-1-ynyl)-phenyl]-3-(4-trifluoromethyl-phenoxy)-propyl]-amine] are 60 nM and 80 nM. On to `CN(C)CCC(Oc1ccc(C(F)(F)F)cc1)c1ccc(C(=O)N2CCN(C3CCCCC3)CC2)cc1` (centres unmarked) [Example 78, (4-Cyclohexyl-piperazin-1-yl)-{4-[3-dimethylamino-1-(4-trifluoromethyl-phenoxy)-propyl]-phenyl}-methanone], for which the inhibition constant (Ki) at human H3 receptor worked out at 22 nM; on Rat SERT, 223 nM. As for `CN(C)CCC(Oc1ccc(Cl)cc1)c1ccc(C#CCCN2CCCCC2)cc1` (centres unmarked) [Example 25, {3-(4-Chloro-phenoxy)-3-[4-(4-piperidin-1-yl-but-1-ynyl)-phenyl]-propyl}-dimethyl-amine], the inhibition constant Ki on human H3 receptor is 21 nM; at Rat SERT it was 39 nM. At Rat SERT, `CN(C)CCC(Oc1ccc(Cl)c(Cl)c1)c1ccc(OCCCN2CCCCC2)cc1` (single isomer, unassigned; (-)) [Example 74, (−){3-(3,4-Dichloro-phenoxy)-3-[4-(3-piperidin-1-yl-propoxy)phenyl]-propyl}-dimethyl-amine] returned an inhibitory constant (Ki) of 11 nM. That is a double-digit nanomolar value. On to `CN(C)CCC(Oc1ccc(C#CCCN2CCOCC2)cc1)c1ccc(Cl)cc1` (centres unmarked) [Example 59, {3-(4-Chloro-phenyl)-3-[4-(4-morpholin-4-yl-but-1-ynyl)-phenoxy]-propyl}-dimethyl-amine], for which the values for the Ki on human H3 receptor and on Rat SERT were 56 nM and 181 nM, respectively. On to `CN(C)CCC(Oc1ccc(C#CCCN2CCSCC2)cc1)c1ccccc1` (centres unmarked) [Example 63, Dimethyl-{3-phenyl-3-[4-(4-thiomorpholin-4-yl-but-1-ynyl)phenoxy]-propyl}-amine], for which the Ki was 18 nM on human H3 receptor and 52 nM on Rat SERT.

Take `CN(C)CCC(Oc1cccc(Cl)c1)c1ccc(OCCCN2CCCCC2)cc1` (centres unmarked) [Example 14, {3-(3-Chloro-phenoxy)-3-[4-(3-piperidin-1-yl-propoxy)-phenyl]-propyl}-dimethyl-amine]: the inhibition constant (Ki) at human SERT turned out to be 7 nM; on human H3 receptor, 1.7 nM.
